Measured values as given in publication PMC12434668 (Journal of Medicinal Chemistry, 2025).
Converted amounts (≈) assume the structure as drawn. Like-named read-outs stand apart in the source and are kept apart here.

Legend:
Mcl-1 = target: T1, Mcl-1 (Homo sapiens, UniProt Q07820); assay: TR-FRET binding assay (FITC-Bak peptide competition)
T1 construct: Briefly, a previously reported construct was subcloned into an expression vector (pDEST-HisMBP); MBP (from vector pDEST-HisMBP); made in house; host or cells: Escherichia coli BL21 CodonPlus (DE3) RIL
Excerpt: Protein preparation was described previously. Briefly, a previously reported construct was subcloned into an expression vector (pDEST-HisMBP) expressed in Escherichia coli BL21 CodonPlus (DE3) RIL (Stratagene) and purified through nickel-column and size-exclusion chromatography sequentially.
Mixtures containing vehicle without compound served as a negative control, while mixtures containing no protein served as a positive control. […] Two or more repeats were obtained and average K i values are reported.

NCI-H929 cells = assay: In vitro proliferation assay (CellTiter-Glo), H929; type: cell-based; settings: Homo sapiens, H929 cell line, average of at least n = 2, triplicate
Protocol: (§1) NCI-H929, A427, and K562 cell lines were obtained from ATCC. NCI-H929 cells were cultured in RPMI1640 (ATCC-formulated, Catalog No. 30-2001) + 10% fetal calf serum (FCS, GIBCO BRL, Cat. No. 26140) + 0.05 mM mercaptoethanol. A-427 cells were cultured in RPMI1640 (ATCC-formulated, Catalog No. 30-2001) + 10% fetal calf serum (FCS, GIBCO BRL, Cat. No. 26140). K562 cell lines were cultured in Iscove’s Modified Dulbecco Medium (Gibco-formulated, purchased from Thermo-Fisher, Cat. No. 12440-053) + 10% fetal bovine serum (FBS, Sigma-Aldrich, F2442). All cell lines were cultured at 37 °C with 5% CO2 in a humidified incubator and have been regularly tested negatively for mycoplasm contamination.
(§2) Cells were seeded at 750–1500 cells per well (depending on growth kinetics) in 384-well plates (Corning, Catalog No. 3707) or at 3000 cells per well in 96-well plates in the respective growth medium and allowed to settle overnight. Suspension cells were plated immediately before compound addition. Adherent cell lines were incubated overnight at 37 °C in a tissue culture incubator prior to compound addition. Compounds were added in triplicates using an HP D300e Digital Dispenser (Hewlett-Packard) or manually at the concentrations indicated and total volumes were normalized using DMSO backfill, with final DMSO concentration of 0.5%. Control wells were treated with DMSO only. Following incubation for 72 or 96 h, a Cell Titer-Glo assay was conducted following the manufacturer recommendations (Promega, G9243) and luminescence was measured using a Victor X5 (PerkinElmer) or a Cytation 3 (Biotek) plate reader. % Viability was defined as relative luminescence units (RLU) of each well divided by the RLU of cells on day 0. Four parameter sigmoidal dose–response curves were generated and IC50 values were determined using XLFit (IDBS) software (eq 205) or in-house software. Drug combination experiments were performed in 96-well or 384-well format and drug synergy was determined using the BLISS model (PMID: 26171228).

A427 cells = assay: In vitro proliferation assay (CellTiter-Glo), A427; type: cell-based; settings: Homo sapiens, A-427; A427 cell line; average of at least n = 2, triplicate
Protocol: as §1, §2

K562 cells = assay: In vitro proliferation counterscreen, Mcl-1 insensitive K562; type: cell-based; settings: Homo sapiens; Mcl-1 insensitive K562; top concentration tested 12.5 µM
Protocol: NCI-H929, A427, and K562 cell lines were obtained from ATCC.
Suspension cells were plated immediately before compound addition. Adherent cell lines were incubated overnight at 37 °C in a tissue culture incubator prior to compound addition. Compounds were added in triplicates using an HP D300e Digital Dispenser (Hewlett-Packard) or manually at the concentrations indicated and total volumes were normalized using DMSO backfill, with final DMSO concentration of 0.5%. Control wells were treated with DMSO only. Following incubation for 72 or 96 h, a Cell Titer-Glo assay was conducted following the manufacturer recommendations (Promega, G9243) and luminescence was measured using a Victor X5 (PerkinElmer) or a Cytation 3 (Biotek) plate reader. % Viability was defined as relative luminescence units (RLU) of each well divided by the RLU of cells on day 0.

[1] = tested on: caspase 3/7 in H929 cells; assay: Caspase 3/7 induction assay (Caspase-Glo), H929; type: cell-based; settings: compound treatment for 3 h; for EC50: Homo sapiens, NCI-H929
Protocol: (§3) Cells were treated with a 10-point compound titration and incubated at 37 °C for 3 h.

[2] = tested on: caspase 3/7 in A427 cells; assay: Caspase 3/7 induction assay (Caspase-Glo), A427; type: cell-based; settings: compound treatment for 3 h; for EC50: Homo sapiens, A-427
Protocol: as §3

[3] = tested on: caspase 3/7 in K562 cells; assay: Caspase 3/7 induction assay (Caspase-Glo), K562; type: cell-based; settings: compound treatment for 3 h; for EC50: Homo sapiens, K562
Protocol: as §3

[4] = Mouse pharmacokinetic analyses (i.v. and oral); type: in vivo; settings: plasma; for AUC: dose not printed at this place
Protocol: For PK analysis, mice were administered intravenously or orally with compound formulated in 10% ethanol and 10% Cremophor EL. Compound 13 dosing was also screened with 20% Phosphal IPG, 20% Phosphal MCT, 10% HP-β-CD, and 40% HP-β-CD. Plasma samples were obtained at predefined time points and compound concentrations in plasma were measured by quantitative HPLC–MS/MS using an internal standard. Calibration and quality control samples were prepared using blank plasma from untreated animals. Samples were precipitated with acetonitrile and injected into a HPLC system (Agilent 1200). Separation was performed by gradients of 5 mmol/L ammonium acetate pH 5.0 and acetonitrile with 0.1% formic acid on a Luna C8 reversed-phase column with 2.5 μm particles (Phenomenex). The HPLC was interfaced by ESI operated in positive ionization mode to a triple quadrupole mass spectrometer (6500+ Triple Quad System, SCIEX) operated in multiple reaction monitoring mode. Chromatograms were analyzed with Analyst (SCIEX) and pharmacokinetic parameters were calculated by noncompartmental analysis using proprietary software.

[5] = Kinetic aqueous solubility; type: physicochemical; settings: aqueous medium, pH 6.8
[6] = in the presence of 1% fetal bovine serum, average of at least n = 2, read-out: TRFRET, Mcl-1 Ki
[7] = supplementary CSV, unit inferred, read-out: Ki TRFRET
[8] = iv, dosed at 20 mg/kg, read-out: i.v. mouse CL
[9] = iv, supplementary CSV, unit not given (Table 1: 20 mg/kg, 14 and 16 at 10 mg/kg), read-out: CL

T1 sequence (Q07820 whole entry): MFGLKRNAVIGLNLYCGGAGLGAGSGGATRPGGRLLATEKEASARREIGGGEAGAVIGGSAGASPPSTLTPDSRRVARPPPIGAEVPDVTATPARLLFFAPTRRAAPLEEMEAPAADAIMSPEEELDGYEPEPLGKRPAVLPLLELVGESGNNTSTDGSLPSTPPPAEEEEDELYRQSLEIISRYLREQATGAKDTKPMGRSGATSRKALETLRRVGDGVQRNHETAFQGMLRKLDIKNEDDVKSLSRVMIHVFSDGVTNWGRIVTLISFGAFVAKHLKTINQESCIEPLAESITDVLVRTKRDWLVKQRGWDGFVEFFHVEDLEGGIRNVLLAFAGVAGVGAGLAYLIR

Compound	Ki (Mcl-1; [6]) [nM]	Ki (Mcl-1; [7]) [nM]	GI50 (NCI-H929 cells) [nM]	GI50 (A427 cells) [nM]	GI50 (K562 cells) [nM]	EC50 [1] [nM]	H929 Caspase 3/7 maximum activity, fold over vehicle (FoV) [1] [fold]	EC50 [2] [nM]	A427 Caspase 3/7 fold over vehicle (FoV) [2] [fold]	EC50 [3] [nM]	K562 Caspase 3/7 fold over vehicle (FoV) [3] [fold]	clearance [4, 8] [mL/min/kg]	clearance [4, 9] [mL/min/kg]	solubility kinetic [5] [µg/mL]	AUC ([4]; iv, read-out: AUCIV) [µM·h]	AUC ([4]; oral, read-out: AUCPO) [µM·h]	bioavailability ([4]; po, read-out: oral bioavailability (F)) [%]
COc1c(C)cc2c3c1cc(C(=O)O)n3CCCOCc1nn(C)cc1-c1c(Cl)ccc3c(CCCOc4cc(C)c(Cl)c(C)c4)c4n(c13)[C@H](C)CN2C4=O [Compound 18, (2^63^4 S a ,1^72^2 R a ,2^4 R)-2^7-Chloro-2^10-(3-(4-chloro-3,5-dimethylphenoxy)propyl)-1^4-methoxy-1^5,2^4,3^1-trimethyl-2^1-oxo-2^1,2^2,2^3,2^4-tetrahydro-1^1 H,3^1 H-5-oxa-2(2,6)-pyrazino [1,2-a]indola-1(7,1)-indola-3(4,3)-pyrazolacyclooctaphane-1^2-carboxylic Acid]	< 0.08	0.04	35 ± 16	51 ± 20	> 12500	36	17	28	16	> 3120	1.4	14.8	14.8				
COCCOc1cc2c3c(cc(C(=O)O)n3CCCOCc3nn(C)cc3-c3c(Cl)ccc4c(CCCOc5cc(C)c(Cl)c(C)c5)c5n(c34)[C@H](C)CN2C5=O)c1OC [Compound 19, (2^63^4 S a ,1^72^2 R a ,2^4 R)-2^7-Chloro-2^10-(3-(4-chloro-3,5-dimethylphenoxy)propyl)-1^4-methoxy-1^5-(2-methoxyethoxy)-2^4,3^1-dimethyl-2^1-oxo-2^1,2^2,2^3,2^4-tetrahydro-1^1 H,3^1 H-5-oxa-2(2,6)-pyrazino[1,2-a]indola-1(7,1)-indola-3(4,3)-pyrazolacyclooctaphane-1^2-carboxylic Acid]	< 0.08	< 0.02	10 ± 3	18 ± 6	> 11200	11	16	13	14	> 3120	1.4	19.8	19.8				
COc1c(OCC2CCOCC2)cc2c3c1cc(C(=O)O)n3CCCOCc1nn(C)cc1-c1c(Cl)ccc3c(CCCOc4cc(C)c(Cl)c(C)c4)c4n(c13)[C@H](C)CN2C4=O [Compound 20, (2^63^4 S a ,1^72^2 R a ,2^4 R)-2^7-Chloro-2^10-(3-(4-chloro-3,5-dimethylphenoxy)propyl)-1^4-methoxy-2^4,3^1-dimethyl-2^1-oxo-1^5-((tetrahydro-2H-pyran-4-yl)methoxy)-2^1,2^2,2^3,2^4-tetrahydro-1^1 H,3^1 H-5-oxa-2(2,6)-pyrazino[1,2-a]indola-1(7,1)-indola-3(4,3)-pyrazolacyclooctaphane-1^2-carboxylic Acid]	0.08 ± 0.02		31 ± 13	55 ± 26	> 12500	23	16	31	14	> 3120	1.3	8.9	8.9				
COc1cc2c3c(cc(C(=O)O)n3CCCOCc3ncccc3-c3c(Cl)ccc4c(CCCOc5cc(C)c(Cl)c(C)c5)c5n(c34)[C@H](C)CN2C5=O)c1OC [Compound 21, (2^63^4 S a ,1^72^2 R a ,2^4 R)-2^7-Chloro-2^10-(3-(4-chloro-3,5-dimethylphenoxy)propyl)-1^4,1^5-dimethoxy-2^4-methyl-2^1-oxo-2^1,2^2,2^3,2^4-tetrahydro-1^1 H-5-oxa-2(2,6)-pyrazino[1,2-a]indola-1(7,1)-indola-3(3,2)-pyridinacyclooctaphane-1^2-carboxylic Acid]	< 0.08	< 0.02	17 ± 8	39 ± 7	> 12500	12	16	17	14	> 3120	1.4	8	8				
COc1cc2c3c(cc(C(=O)O)n3CCCOCc3ccncc3-c3c(Cl)ccc4c(CCCOc5cc(C)c(Cl)c(C)c5)c5n(c34)[C@H](C)CN2C5=O)c1OC [Compound 22, (2^63^4 S a ,1^72^2 R a ,2^4 R)-2^7-Chloro-2^10-(3-(4-chloro-3,5-dimethylphenoxy)propyl)-1^4,1^5-dimethoxy-2^4-methyl-2^1-oxo-2^1,2^2,23,24-tetrahydro-11H-5-oxa-2(2,6)-pyrazino[1,2-a]indola-1(7,1)-indola-3(3,4)-pyridinacyclooctaphane-1^2-carboxylic Acid]	0.08 ± 0.01		29 ± 6	58 ± 4	> 12500							3.5	3.5	11 (≈ 13.8 µM)			
COc1cc2c3c(cc(C(=O)N(C)C)n3CCCOCc3nn(C)cc3-c3c(Cl)ccc4c(CCCOc5cc(C)c(Cl)c(C)c5)c5n(c34)[C@H](C)CN2C5=O)c1OC [Compound 25, (2^63^4 S a ,1^72^2 R a ,2^4 R)-2^7-chloro-2^10-(3-(4-chloro-3,5-dimethylphenoxy)propyl)-1^4,1^5-dimethoxy-N,N,2^4,3^1-tetramethyl-2^1-oxo-2^1,2^2,2^3,2^4-tetrahydro-1^1 H,3^1 H-5-oxa-2(2,6)-pyrazino[1,2-a]indola-1(7,1)-indola-3(4,3)-pyrazolacyclooctaphane-1^2-carboxamide]	< 0.08	0.077	39 ± 7	105 ± 24	> 12500	17	16	24	14	> 3120	1.4	6.4	6.4		136	14	22
